{"source": "patent US20130183435A1", "about": "“LOW TEMPERATURE PLASMA COATING FOR ANTI-BIOFILM FORMATION” (priority 2012, published 2013)", "key": {"[1]": {"system": "S. epidermidis RP62A biofilm", "assay": "Susceptibility of bacterial cells in biofilm to 6 μg/ml antibiotic", "type": "cell-based", "settings": "for reduction of bacterial count in biofilm: 8 hours", "experimental": "Susceptibility of bacterial cells in biofilm to antibiotics was studied with a protocol established previously with modification. SS and Ti wafers (1×1 cm) were sterilized, coated with human plasma, and placed into the wells of 24-well microplates. Overnight culture of S. epidermidis was diluted 1:200 into fresh THY medium with 0.5% glucose. Aliquots (1 ml) of the cell suspensions were seeded into each well containing wafers and incubated at 37° C. for 16 hours. The wafers were gently washed three times with PBS to remove non-adherent bacterial cells. Then fresh Mueller Hinton broth (MHB) with and without 6 μg/ml vancomycin or ciprofloxacin was added into the wells containing wafers and cultured at 37° C. for 8 hours. The wafers were washed four times with PBS and then put into tubes with PBS. The biofilms on wafers were detached and disaggregated with ultrasonic bath treatment. The number of bacterial cells was quantified using the spread plate technique. Response to antibiotic treatment of a treated sample was defined as the percentage of untreated samples calculated by CFU numbers. Triplicate of wafers were used in each experiments and four independent experiments were performed for vacomycin and three independent experiments were performed for ciprofloxacin."}, "S. epidermidis biofilm": {"system": "S. epidermidis biofilm", "assay": "Antibiotic susceptibility assay of cells attached on wafers with different dose of ciprofloxacin", "type": "cell-based", "settings": "for decrease of the number of bacteria recovered from biofilms / bacteria recovered: 128 μg/ml; for decrease of the number of bacteria recovered from biofilms: 48 hours", "experimental": "Antibiotic susceptibility assay of S. epidermidis cells attached on wafers with different dose of antibiotics. Biofilm formation on the four groups of wafers in triplicate was performed as described in biofilm formation assay section. The wafers with biofilms were gently washed four times with PBS to remove non-adherent bacterial cells. Then fresh Mueller Hinton broth (MHB) with 0, 2, 8, 32, and 128 μg/ml ciprofloxacin (Sigma-Aldrich, St Louis, Mo.) was added into the wells containing wafers and cultured at 37° C. for 48 hours, with MHB medium with corresponding concentration of ciprofloxacin changed every 12 hours. The wafers were washed four times with PBS and bacteria numbers on the wafers were counted."}}, "data": [{"smiles": "O=C(O)c1cn(C2CC2)c2cc(N3CCNCC3)c(F)cc2c1=O", "note": "[ciprofloxacin]", "values": [{"measurement": "reduction of bacterial count in biofilm", "setting": "[1]; TMS coated SS wafer", "value": "99.4±0.1", "unit": "%"}, {"measurement": "reduction of bacterial count in biofilm", "setting": "[1]; TMS coated Ti wafer", "value": "96.8±1.4", "unit": "%"}, {"measurement": "reduction of bacterial count in biofilm", "setting": "[1]; uncoated SS wafer", "value": "86±1.2", "unit": "%"}, {"measurement": "reduction of bacterial count in biofilm", "setting": "[1]; uncoated Ti wafer", "value": "81.8±3.2", "unit": "%"}, {"measurement": "number of bacteria, percent of bacteria on bare surfaces with neither TMS coating nor ciprofloxacin treatment", "setting": "S. epidermidis biofilm; 8 μg/ml, TMS coated surfaces", "value": "less than 0.01%"}, {"measurement": "number of bacteria, percent of bacteria on TMS coated surfaces without ciprofloxacin treatment", "setting": "S. epidermidis biofilm; 32 μg/ml, TMS coated surfaces", "value": "less than 0.1%"}, {"measurement": "decrease of the number of bacteria recovered from biofilms", "setting": "S. epidermidis biofilm; uncoated SS surfaces", "value": "99.6±0.07", "unit": "%"}, {"measurement": "decrease of the number of bacteria recovered from biofilms", "setting": "S. epidermidis biofilm; uncoated Ti surfaces", "value": "99.3±0.1", "unit": "%"}, {"measurement": "bacteria recovered", "setting": "S. epidermidis biofilm; TMS coated SS surfaces", "value": "177±80"}, {"measurement": "bacteria recovered", "setting": "S. epidermidis biofilm; TMS coated Ti surfaces", "value": "444±217"}, {"measurement": "MBC for biofilms", "setting": "S. epidermidis biofilm; biofilms on TMS coated surfaces, MBC = 99.9% (3 log10 units) decrease", "value": "less than 32 μg/ml"}, {"measurement": "MBC for bacteria in biofilms", "setting": "S. epidermidis biofilm; biofilms on uncoated surfaces", "value": "more than 128 μg/ml"}]}, {"smiles": "CN[C@H](CC(C)C)C(=O)N[C@H]1C(=O)N[C@@H](CC(N)=O)C(=O)N[C@H]2C(=O)N[C@H]3C(=O)N[C@H](C(=O)N[C@H](C(=O)O)c4cc(O)cc(O)c4-c4cc3ccc4O)[C@H](O)c3ccc(c(Cl)c3)Oc3cc2cc(c3O[C@@H]2O[C@H](CO)[C@@H](O)[C@H](O)[C@H]2O[C@H]2C[C@](C)(N)[C@H](O)[C@H](C)O2)Oc2ccc(cc2Cl)[C@H]1O", "note": "[vacomycin, vancomycin]", "values": [{"measurement": "reduction of bacterial count in biofilm", "setting": "[1]; TMS coated SS wafer", "value": "about 83.8±4.3%"}, {"measurement": "reduction of bacterial count in biofilm", "setting": "[1]; TMS coated Ti wafer", "value": "91.9±1.6", "unit": "%"}, {"measurement": "response of bacterial cells to antibiotic treatment", "setting": "[1]; uncoated wafers", "value": "resistant"}]}]}
